Test results published in PMC2889824, “Structural Optimization and De Novo Design of Dengue Virus Entry Inhibitory Peptides” (PLoS Neglected Tropical Diseases, 2010).
Like-named read-outs stand apart in the source and are kept apart here. Where no end group is shown, it is not given here.

Key:
[1] = test system: DENV-2 strain NG-C; conditions: cited from earlier work; for DENV inhibitory activity of wild type mimic peptides (in words): previous work; for IC50: previously tested wild type peptides denoted with an asterisk, read-out: IC50 (did not achieve 50% inhibition), previously tested wild type peptides
From the text: Table 1 Sequences and IC50 values of peptides. | column: IC50 (µM) || We had previously identified several E protein regions where peptides mimicking the E protein sequence might function as inhibitors. […] These included a peptide derived from the domain II fusion sequence (DN80, corresponding to amino acids 96–114 in the DENV-2 E protein) and two overlapping peptides derived from the domain II hinge region (DN57 and DN81, corresponding to amino acids 205–223 and 205–232, respectively). Predictions from crystal structures, [14], [15], as well as the previously confir ...

[2] = test system: DENV-2 strain NG-C; assay type: cell-based, dengue virus-2 (DENV-2); conditions: for maximum inhibition: 24 h; for inhibition of DENV-2 infection (in words): DENV-2 NG-C, any concentration tested
Procedure: LLC-MK2 target cells were seeded at a density of 1×10^5 cells in each well of a 6-well plate 24 h prior to infection. Approximately 200 focus forming units (FFU) of virus were incubated with or without peptide in serum-free DMEM for 1 h at rt. Virus/peptide or virus/control mixtures were allowed to infect confluent target cell monolayers for 1 h at 37°C, with rocking every 15 m, after which time the medium was aspirated and overlaid with fresh DMEM/10% (v/v) FBS containing 0.85% (w/v) Sea-Plaque Agarose (Cambrex Bio Science, Rockland, ME) without rinsing. Cells with agar overlays were incubated at 4°C for 20 m to set the agar. Infected cells were then incubated at 37°C with 5% CO2 for 5 days. Infected cultures were fixed with 10% formalin overnight at 4°C, permeablized with 70% (v/v) ethanol for 20 m, and rinsed with phosphate buffered saline, pH 7.4 (PBS) prior to immunostaining. Virus foci were detected using a specific mouse mAb from hybridoma E60 (obtained from M. Diamond at Washington University), followed by horseradish peroxidase-conjugated goat anti-mouse immunoglobulin (Pierce, Rockford, IL), and developed using AEC chromogen substrate (Dako, Carpinteria, CA). Results are expressed as the average of at least two independent trials with three replicates each. IC50 values were determined using variable slope sigmoidal dose-response curve fits with GraphPad Prism 4.0 software (LaJolla, CA), except for DN81opt, which was determined graphically due to a lack of data points to produce a reasonable curve fit.

[3] = test system: LLC-MK2 cells; assay type: cell-based, Macaca mulatta
Procedure: Cytotoxicity of peptides was measured by monitoring mitochondrial reductase activity using the TACS™ MTT cell proliferation assay (R&D Systems, Inc., Minneapolis, MN) according to the manufacturer's instructions. Dilutions of peptides in serum-free DMEM were added to confluent monolayers of LLC-MK2 cells in 96-well plates for 1 h at 37°C, similar to the focus forming inhibition assays, and incubated at 37°C with 5% (v/v) CO2 for 24 h. Absorbance at 560 nm was measured using a Tecan GeniosPro plate reader (Tecan US, Durham, NC).

[4] = target: T1, purified, recombinant, 80% truncated DENV-2 S1 E protein (Dengue virus type 2, UniProt P12823); assay: biochemical; assay type: binding, DENV-2 strain S1; conditions: for kon: read-out: association rate constant ka; for koff: read-out: dissociation rate constant kd
T1 construct: Purified, recombinant, 80% truncated DENV-2 S1 E protein was obtained from Hawaii Biotechnology; purchased Hawaii Biotechnology (Honolulu, HI)
Procedure: Real time binding assays between peptides and purified DENV-2 S1 E protein were performed using biolayer interferometry on an Octet QK system (Fortebio, Menlo Park, CA). This system monitors interference of light reflected from the surface of a fiber optic sensor to measure the thickness of molecules bound to the sensor surface. Purified, recombinant, 80% truncated DENV-2 S1 E protein was obtained from Hawaii Biotechnology (Honolulu, HI). Peptides were N-terminally biotinylated with a 5∶1 molar ratio of NHS-LC-LC-Biotin (Pierce/ThermoFisher, Rockford, IL) in PBS pH 6.5 at 4°C. Excess biotinylation reagent was removed using Pepclean C-18 spin columns (Pierce/ThermoFisher, Rockford, IL). Biotinylated peptides were coupled to kinetics grade streptavidin high binding biosensors (Fortebio, Menlo Park, CA) at several different concentrations. Sensors coated with peptides were allowed to bind to E protein in PBS with 0.02% (v/v) Tween-20 and 1 mg/ml BSA at several different E protein concentrations. Binding kinetics were calculated using the Octet QK software package, which fit the observed binding curves to a 1∶1 binding model to calculate the association rate constants. E protein was allowed to dissociate by incubation of the sensors in PBS. Dissociation curves were fit to a 1∶1 model to calculate the dissociation rate constants. Binding affinities were calculated as the kinetic dissociation rate constant divided by the kinetic association rate constant.

[5] = test system: DENV-2 binding to LLC-MK2 cells; assay: Virus:cell binding inhibition assay (qRT-PCR); assay type: cell-based, dengue virus-2 (DENV-2); conditions: virus pre-incubated 1 h 4°C, bound to LLC-MK2 2 h 4°C, washed, compared to control virus without peptide
Procedure: Binding inhibition assays were modified from Thaisomboonsuk, et al.}. Briefly, LLC-MK2 monolayers were rinsed in 4°C DMEM containing 0.8% BSA and 25 mM HEPES, pH 7.5. Virus was incubated at 4°C with peptides, control anti-dengue serum, or heparan sulfate in DMEM/BSA/HEPES for one hour before adding to the monolayers for 2 hours at 4°C. Monolayers were rinsed 3 times with cold DMEM/BSA/HEPES media prior to RNA extraction using the Qiagen RNeasy mini kit (Valencia, CA) per manufacturers instructions. Quantitative, real time, reverse transcriptase polymerase chain reaction (qRT-PCR) was conducted utilizing the Roche Lightcycler RNA Master SYBR Green 1 qRT-PCR kit (Basel, Switzerland), using primers Den_F (TTAGAGGAGACCCCTCCC) and Den_R ([…]) from Chutinimitkul et al.}. and the following cycling conditions: 1 h at 61°C, 30 s at 95°C, followed by 45 cycles of: 5 s at 95°C, 20 s at 61°C, and 30 s at 72°C. Cp values were used to estimate infectious units according to a standard curve. Independent assays were repeated three times, in duplicate or triplicate.

[6] = FFU reduction, DENV-2 NG-C on LLC-MK2 cells, dashed line = tested, 50% inhibition not achieved, read-out: IC50 (did not achieve 50% inhibition)
[7] = MTT, confluent LLC-MK2, 24 h post-exposure, any concentration tested, one-way ANOVA, P>0.05

In the case of “AWLVHRQWFLDLPLPWLPG [DN81wt, previously tested wild type peptide from the domain II hinge region]”, the “DENV inhibitory activity of wild type mimic peptides (in words)” value [1] is listed as “did not show substantial DENV inhibitory activity” and the IC50 [1] is listed as greater than 50 µM.

For “AWLVHTQWFLDLPLPWLPGADTQGSNWI [DN57wt, previously tested wild type peptide from the DENV-2 E domain II hinge region]”, the “DENV inhibitory activity of wild type mimic peptides (in words)” value [1] is listed as “did not show substantial DENV inhibitory activity” and the IC50 [1] is listed as greater than 50 µM.

Work on “EWSKHREGRWHTALTGATEI [1OAN3, de novo designed peptide, E protein region 251–270]” yielded an IC50 [2, 6] greater than 50 µM.

For FWFTLIKTQAKQPARYRRFC [1OAN1], the IC50 ([2]; -2 strain NG-C, 1 h) was 7 ± 4 µM, the maximum inhibition ([2]; -2 strain NG-C, 50 µM) was 99% and the cellular toxicity [3, 7] was “not toxic at any concentration tested”. For the same substance, the Kd [4] was 0.45 µM, the kon [4] was 3900 M⁻¹ s⁻¹ and the koff [4] was 0.0016 s⁻¹.

Work on MVIVQHQWMQIMRWPWQPE [DN80opt] yielded an IC50 [2, 6] greater than 50 µM.

In the case of “QQCFRFPALRKKATYTRFWI [1OAN1-scram, scrambled version of 1OAN1 of identical composition]”, the IC50 [2, 6] is reported as greater than 50 µM, the “inhibition of DENV-2 infection (in words)” value ([2]; FFU reduction) is reported as “did not inhibit infection by DENV-2 at any concentration tested” and the cellular toxicity [3, 7] is reported as “not toxic at any concentration tested”.

RQMRAWGQDYQHGGMGYSC [DN81opt] showed an IC50 ([2]; -2 strain NG-C, 1 h) of 36 ± 6 µM and a maximum inhibition ([2]; -2 strain NG-C, 50 µM) of 57%.

For RWMVWRHWFHRLRLPYNPGKNKQNQQWP [DN57opt], the IC50 ([2]; -2 strain NG-C, 1 h) was 8 ± 1 µM, the maximum inhibition ([2]; -2 strain NG-C, 20 µM) was 97% and the cellular toxicity [3] was “mildly toxic”. The Kd [4] was 1.2 µM, the kon [4] was 800 M⁻¹ s⁻¹ and the koff [4] was 0.00077 s⁻¹.

With “RWRHLKKMQRLQPRNPNWPGQFWVHYNW [DN57opt-scram, scrambled version of DN57opt of identical composition]” the IC50 [2, 6] was greater than 50 µM, the “inhibition of DENV-2 infection (in words)” value ([2]; FFU reduction) was “did not display inhibition at any concentration tested” and the cellular toxicity [3, 7] was “not toxic at any concentration tested”.

“WHTVEPIVTEKDRPVNYEWE [1OAN4, de novo designed peptide, E protein region 351–370]” showed an IC50 [2, 6] greater than 50 µM.

In the case of “YPENLEYRVYITPHPGEEHH [1OAN2, de novo designed peptide, E protein region 131–150]”, the IC50 [2, 6] is reported as greater than 50 µM.

In the case of heparan sulfate, the “virus:cell binding” value [5] is reported as “reduced cell binding”.
